# Assay results from patent US8017629B2, “Compounds and uses thereof in modulating amyloid β” (Neurogenetic Pharmaceuticals, Inc., priority 2003, dated 2011).
# Tested on: Aβ42 levels in the extracellular medium
# Test: FRET (HTRF) assay, Aβ42 level of the extracellular medium of SH-SY5Y-APP cells
# Assay type: cell-based
# Settings: Homo sapiens, concentration at which reduction of Aβ42 level was half of the maximum reduction, read-out: Ab42 Potency
row,SMILES,EC50 [µM]
1,CCN(CCOC)c1ccc(Nc2nc(-c3ccc(-n4ccnc4)cc3)cs2)c(C)c1 [Compound 230],1.1 to 5
2,Cc1cc(NCc2ccccn2)ccc1Nc1nc(-c2ccc(-n3ccnc3)cc2)cs1 [Compound 208],5.1 to 10
3,Cc1cc(NCCN(C)C)ccc1Nc1nc(-c2ccc(-n3ccnc3)cc2)cs1 [Compound 202],1.1 to 5
4,COc1ccc(-c2csc(Nc3ccc4c(c3)OCO4)n2)c(OC)c1 [Compound 104],1.1 to 5
5,Clc1cc(Cl)c(Nc2nc(-c3ccc(-n4ccnc4)cc3)cs2)c(Cl)c1 [Compound 213],1.1 to 5
6,COc1ccc(-c2csc(Nc3cccc(Cl)c3)n2)c(OC)c1 [Compound 153],5.1 to 10
7,Cc1cn(-c2ccc(-c3csc(Nc4cc(N5CCOCC5)ccc4C)n3)cn2)cn1 [Compound 276],< 0.2
8,CCN(CC)c1ccc(Nc2nc(-c3ccc(-n4cnc(C)c4)cc3C(F)(F)F)cs2)c(C)c1 [Compound 227],5.1 to 10
9,Cc1ccc(C(C)C)cc1Nc1nc(-c2ccc(-n3ccnc3)cc2)cs1 [Compound 324],< 0.2
10,Cc1cccc(Nc2nc(-c3ccc(N4CCN(C)CC4)cc3)cs2)c1 [Compound 226],1.1 to 5
11,CCN(CC)c1ccc(Nc2nc(-c3ccc(-n4ccnc4)cc3)cs2)cc1 [Compound 177],1.1 to 5
12,Cc1cc(N2CCN(C)CC2)ccc1Nc1nc(-c2ccc(-n3ccnc3)cc2)cs1 [Compound 200],1.1 to 5
13,CCN(CC)c1ccc(Nc2nc(-c3ccc(-n4cc(C(C)=O)nn4)cc3)cs2)c(C)c1 [Compound 274],1.1 to 5
14,CN1CCN(c2ccc(-c3csc(Nc4ccc5ccccc5c4)n3)cc2)CC1 [Compound 127],1.1 to 5
15,Cc1cn(-c2ccc(-c3csc(Nc4cc5cn[nH]c5cc4C)n3)cn2)cn1 [Compound 331],5.1 to 10
16,CN(C)S(=O)(=O)c1ccc(-c2csc(Nc3ccc4[nH]cnc4c3)n2)cc1 [Compound 157],10.1 to 30
17,CCN(CC)CCN(C)c1ccc(Nc2nc(-c3ccc(-n4ccnc4)cc3)cs2)c(C)c1 [Compound 210],1.1 to 5
18,Cc1ccc(C)c(Nc2nc(-c3ccc(-n4cnc(C)c4)nc3)cs2)c1 [Compound 185],< 0.2
19,CCN(CC)c1ccc(F)c(Nc2nc(-c3ccc(-n4cnc(C)c4)cc3)cs2)c1 [Compound 313],< 0.2
20,CCN(CC)c1ccc(Nc2nc(-c3cnc(-n4cnc(C)c4)nc3)cs2)c(C)c1 [Compound 342],< 0.2

row,SMILES,EC50 [µM]
1,CSc1cccc(Nc2nc(-c3ccc(N(C)C)cc3)cs2)c1 [Compound 165],5.1 to 10
2,Cc1ccc(NCC2CCN(C)CC2)cc1Nc1nc(-c2ccc(-n3ccnc3)cc2)cs1 [Compound 256],1.1 to 5
3,Cc1ccc(Nc2nc(-c3ccc(N4CCN(C)CC4)cc3)cs2)cc1C [Compound 195],10.1 to 30
4,Cc1ccc(N2CCOCC2)cc1Nc1nc(-c2ccc(-n3ccnc3)cc2)cs1 [Compound 253],0.2 to 1
5,CSc1cccc(Nc2nc(-c3ccc(N4CCCC4)cc3)cs2)c1 [Compound 166],0.2 to 1
6,Cc1ccc(CO)cc1Nc1nc(-c2ccc(-n3cnc(Br)c3)cc2)cs1 [Compound 301],0.2 to 1
7,Cc1cn(-c2ccc(-c3csc(Nc4cc(C(C)C)ccc4C)n3)cn2)cn1 [Compound 327],< 0.2
8,Cc1cc(C)cc(Nc2nc(-c3ccc(-n4cnc(-c5ccccc5)c4)cc3)cs2)c1 [Compound 178],10.1 to 30
9,CN1CCN(c2ccc(-c3csc(Nc4ccc(Cl)cc4)n3)cc2)CC1 [Compound 148],0.2 to 1
10,Cc1cn(-c2ccc(-c3csc(Nc4cc(N(C)C)ccc4C)n3)cn2)cn1 [Compound 282],< 0.2
11,CN1CCN(c2ccc(-c3csc(Nc4cccc5cccnc45)n3)cc2)CC1 [Compound 128],1.1 to 5
12,Cc1cc(C)c(Nc2nc(-c3ccc(-n4nccn4)cc3)cs2)cc1C [Compound 244],1.1 to 5
13,CN(C)S(=O)(=O)c1ccc(-c2csc(Nc3ccc(Cl)cc3)n2)cc1 [Compound 149],5.1 to 10
14,Cc1cn(-c2ccc(-c3csc(Nc4cc(C)c(O)cc4C)n3)cc2)cn1 [Compound 269],5.1 to 10
15,Cc1ccc(-n2cccc2)cc1Nc1nc(-c2ccc(N3CCN(C)CC3)cc2)cs1 [Compound 323],1.1 to 5
16,CN1CCN(c2ccc(-c3csc(Nc4ccc(Cl)c(Cl)c4)n3)cc2)CC1 [Compound 139],0.2 to 1
17,CCOc1cc(C)c(Nc2nc(-c3ccc(-n4ccnc4)cc3)cs2)cc1C [Compound 290],< 0.2
18,CC(C)N(c1ccccc1)c1ccc(Nc2nc(-c3ccncc3)cs2)cc1 [Compound 169],10.1 to 30
19,Cc1cn(-c2ccc(-c3nc(Nc4cc(C)c(C)cc4C)sc3C)cc2Br)cn1 [Compound 243],1.1 to 5
20,Cc1cc(C)c(Nc2nc(-c3ccc(-n4cnc(C)c4)cc3)cs2)c(C)c1 [Compound 250],0.2 to 1

row,SMILES,EC50 [µM]
1,CCN(CC)c1ccc(Nc2nc(-c3ccc(N4CCN(C)CC4)nc3)cs2)c(C)c1 [Compound 329],10.1 to 30
2,COc1ccc(Nc2nc(-c3ccc4c(c3)OCCO4)cs2)cc1OC [Compound 110],5.1 to 10
3,Cc1ccc(-n2cccc2)cc1Nc1nc(-c2ccc(-n3cnc(Br)c3)cc2)cs1 [Compound 279],0.2 to 1
4,Cc1cn(-c2ccc(-c3csc(Nc4c(Cl)cc(Cl)cc4Cl)n3)cc2)cn1 [Compound 238],1.1 to 5
5,CCCN(CC)c1ccc(C)c(Nc2nc(-c3ccc(-n4cnc(C)c4)nc3)cs2)c1 [Compound 284],< 0.2
6,CN1CCN(c2ccc(-c3csc(Nc4ccc5c(c4)OCCO5)n3)cc2)CC1 [Compound 134],1.1 to 5
7,Clc1ccc(Nc2nc(-c3ccc(-n4ccnc4)cc3)cs2)cc1Cl [Compound 173],1.1 to 5
8,COc1ccc(Nc2nc(-c3ccc(-n4ccnc4)cc3)co2)cc1 [Compound 340],1.1 to 5
9,CN1CCN(c2ccc(-c3csc(Nc4ccc(OC(F)(F)F)c(Cl)c4)n3)cc2)CC1 [Compound 198],1.1 to 5
10,CCN(CCO)c1ccc(Nc2nc(-c3ccc(-n4cnc(C)c4)cc3C(F)(F)F)c(C)s2)c(C)c1 [Compound 206],5.1 to 10
11,COc1ccc(-c2coc(Nc3ccccc3)n2)cc1 [Compound 338],10.1 to 30
12,CCN(CC)c1cc(Nc2nc(-c3ccc(-n4cnc(C)c4)nc3)cs2)c(C)cc1C [Compound 289],< 0.2
13,COc1cccc(Nc2nc(-c3ccc(-n4ccnc4)cc3)cs2)c1 [Compound 181],10.1 to 30
14,COc1cc(C)c(Nc2nc(-c3ccc(N4CCN(C)CC4)cc3)cs2)cc1C(C)C [Compound 321],0.2 to 1
15,CSc1ccccc1Nc1nc(-c2ccc(N3CCN(C)CC3)cc2)cs1 [Compound 196],5.1 to 10
16,CSc1cccc(Nc2nc(-c3ccc(-n4ccnc4)cc3)cs2)c1 [Compound 144],0.2 to 1
17,COc1ccc(OC)c(Nc2nc(-c3ccc(-n4cnc(C)c4)cc3)cs2)c1 [Compound 264],0.2 to 1
18,CCN(C)c1ccc(C)c(Nc2nc(-c3ccc(-n4cnc(C)c4)cc3)cs2)c1 [Compound 347],< 0.2

# Target: BACE Enzyme (Homo sapiens, UniProt P56817)
# Test: BACE Enzyme Potency (Table 12)
# Assay type: biochemical
# Settings: not given
# Chain of BACE Enzyme (P56817 46-501, species assumed): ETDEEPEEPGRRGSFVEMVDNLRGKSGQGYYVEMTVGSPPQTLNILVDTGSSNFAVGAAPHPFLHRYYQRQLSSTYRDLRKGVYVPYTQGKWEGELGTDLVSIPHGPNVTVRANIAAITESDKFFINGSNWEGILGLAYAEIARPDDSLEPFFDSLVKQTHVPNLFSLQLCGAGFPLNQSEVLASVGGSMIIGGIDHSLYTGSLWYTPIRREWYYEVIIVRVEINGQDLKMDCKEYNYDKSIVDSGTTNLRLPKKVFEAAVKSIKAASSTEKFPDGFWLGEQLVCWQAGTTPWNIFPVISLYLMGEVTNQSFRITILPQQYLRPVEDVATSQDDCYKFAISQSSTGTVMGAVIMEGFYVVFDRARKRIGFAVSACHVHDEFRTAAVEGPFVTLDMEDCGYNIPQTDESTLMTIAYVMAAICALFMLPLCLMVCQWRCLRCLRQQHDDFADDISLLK
row,SMILES,IC50 [µM]
1,COc1ccc(-c2csc(Nc3ccc(N(C)C)cc3)n2)c(OC)c1 [Compound 355],1.1 to 5

# Same assay, conditions: Table 12; class symbols; read-out: BACE Enzyme Potency
row,SMILES,IC50 [µM]
1,CN1CCN(c2ccc(-c3csc(Nc4ccc5[nH]ncc5c4)n3)cc2)CC1 [Compound 368],1.1 to 5
2,CCN(CC)c1ccc(Nc2nc(-c3ccc(-n4cnc(C)c4)cc3)cs2)c(C)c1 [Compound 380],1.1 to 5
3,CN1CCN(c2ccc(-c3csc(Nc4ccc5c(c4)OCCO5)n3)cc2)CC1 [Compound 364],< 0.2
4,COc1ccc(-c2csc(Nc3ccc4[nH]cnc4c3)n2)c(OC)c1 [Compound 374],0.2 to 1
5,CN1CCN(c2ccc(-c3csc(Nc4ccc(Cl)c(Cl)c4)n3)cc2)CC1 [Compound 366],< 0.2
6,COc1cc(Nc2nc(-c3ccc(N4CCN(C)CC4)cc3)cs2)cc(OC)c1OC [Compound 356],0.2 to 1
7,CN1CCN(c2ccc(-c3csc(Nc4ccc(Oc5ccccc5)cc4)n3)cc2)CC1 [Compound 369],< 0.2
8,CSc1cccc(Nc2nc(-c3ccc(-n4ccnc4)cc3)cs2)c1 [Compound 371],0.2 to 1
9,CCN(c1ccc(N2CCOCC2)cc1)c1nc(-c2ccc(-n3ccnc3)cc2)cs1 [Compound 381],5.1 to 10
10,CN1CCN(c2ccc(-c3csc(Nc4ccc(Cl)cc4)n3)cc2)CC1 [Compound 378],0.2 to 1
11,COc1ccc(-c2csc(Nc3ccc(Br)cc3)n2)c(OC)c1 [Compound 362],0.2 to 1
12,CC(C)N(c1ccccc1)c1ccc(Nc2nc(-c3ccc(-n4ccnc4)cc3)cs2)cc1 [Compound 373],0.2 to 1
13,CSc1cccc(Nc2nc(-c3ccc(N4CCCC4)cc3)cs2)c1 [Compound 379],0.2 to 1
14,CN1CCN(c2ccc(-c3csc(Nc4ccc(N(C)C)cc4)n3)cc2)CC1 [Compound 358],0.2 to 1
15,CN1CCN(c2ccc(-c3csc(Nc4cccc5cccnc45)n3)cc2)CC1 [Compound 360],< 0.2
16,c1cc(Nc2nc(-c3ccc4c(c3)OCO4)cs2)c2cn[nH]c2c1 [Compound 377],0.2 to 1
17,c1cn(-c2ccc(-c3csc(Nc4ccc5[nH]ccc5c4)n3)cc2)cn1 [Compound 370],0.2 to 1
18,CCc1ccc(Nc2nc(-c3ccc(N4CCCC4)cc3)cs2)cc1 [Compound 363],0.2 to 1
19,CN1CCN(c2ccc(-c3csc(Nc4ccc5c(c4)OCO5)n3)cc2)CC1 [Compound 357],0.2 to 1
20,COc1cc(Nc2nc(-c3ccc(F)cc3)cs2)cc(OC)c1OC [Compound 354],0.2 to 1
21,Brc1ccc(Nc2nc(-c3ccc(N4CCCC4)cc3)cs2)cc1 [Compound 361],0.2 to 1
22,CN1CCN(c2ccc(-c3csc(Nc4cccc(Cl)c4)n3)cc2)CC1 [Compound 376],0.2 to 1
23,COc1ccc(-c2csc(Nc3ccc(OC)c(OC)c3)n2)c(OC)c1 [Compound 353],0.2 to 1
24,CN1CCN(c2ccc(-c3csc(Nc4ccc5ccccc5c4)n3)cc2)CC1 [Compound 359],0.2 to 1
25,CCOC(=O)c1ccc(Nc2nc(-c3ccc(N4CCN(C)CC4)cc3)cs2)cc1 [Compound 382],0.2 to 1
26,COc1cccc(CNc2nc(-c3ccc(N4CCN(C)CC4)cc3)cs2)c1 [Compound 365],5.1 to 10
